The numbers were not newly measured in patent US20160051475A1, “Sustained Release Composition Comprising an Amine as Active Agent and a Salt of a Cyclic Organic Acid” (Upsher-Smith Laboratories, Inc., priority 2010, published 2016), which cites them from elsewhere.

Structures are written as SMILES.

With `CC(=O)Nc1ccc(O)cc1` [acetaminophen], the pKa was 9.7.

The pKa is the negative logarithm of the acid dissociation constant.
